Assay results published in patent US5958416A, “Heat shock protein peptides and methods for modulating autoimmune central nervous system disease” (Regents of the University of Minnesota, priority 1995, dated 1999).
“Also recorded” adds a separate entry of the source. Read-outs that look alike come from different tables or passages of the source. No end group written: not given here.

Key:
[1] = system: IgG antibodies in CSF and sera of MS and OND patients; assay: Dot-blot analysis of patient CSF and sera for antibodies to CNP 173-184 peptide; type: binding, human
Protocol: Cerebrospinal fluid (CSF) and sera from MS patients and controls were analyzed for antibodies to the peptide derived from CNP isoform 2 (corresponding to amino acids 173-184) using dot-blot analyses. Samples from nine MS patients and five patients with other neurologic diseases (OND) were analyzed. The CNP 173-184 peptide coupled to BSA was adsorbed onto nitrocellulose membranes. Control wells received BSA alone. Two dilutions of paired spinal fluids and sera were added to the wells and the amount of antibody binding determined using peroxidase labeled anti-human IgG and an enhanced chemiluminescent assay (ECL Western Blotting Kit; Amersham International, Plc., Buckinghamshire, England). Using the public domain program, Image 1.40 (available from NIH), the integrated densities of the dots in the CNP 173-184 peptide wells and BSA wells were determined.

[2] = system: experimental autoimmune encephalomyelitis (EAE); assay: Modulation of EAE by pre-immunization with CNP 173-184 peptide-KLH (Example 4); type: in vivo, Lewis rats
[3] = system: experimental autoimmune encephalomyelitis (EAE); assay: Modulation of EAE by pre-immunization with HSP65 peptides not coupled to KLH (Example 9); type: in vivo, Lewis rats; settings: 50 μg peptide not coupled to KLH, s.c., in IFA; 1 mg GPSC in CFA four weeks later
[4] = system: Peripheral blood lymphocytes (PBL); type: cell-based, human
[5] = positive/tested, peptide coupled to BSA on nitrocellulose, data not shown
[6] = chi-square p, PBL, listed as #6

Leu-Lys-Lys-Leu-Lys-Pro-Gly-Leu-Glu-Lys-Asp-Phe (LKKLKPGLEKDF; also: coupled to BSA) [CNP 173-184 peptide, coupled to BSA in blots]
Integrated densities in peptide wells relative to BSA wells ([1]; MS CSF): approximately twofold higher
p, MS versus OND patients with CSF antibodies to the peptide ([1]; chi square analysis): < 0.03
CSF samples with antibodies to the peptide, MS patients [1, 5]: 5/9
CSF samples with antibodies to the peptide, OND patients [1, 5]: 0/5
Number of MS patients with antibodies to the peptide in sera ([1]; sera): 3
Number of OND patients with antibodies to the peptide in sera ([1]; sera): 1
EAE after GPSC challenge, pre-immunization in IFA ([2]; 50 μg s.c. in IFA, GPSC in CFA five to six weeks later): suppression of EAE
p, difference in EAE severity between peptide-IFA and KLH-IFA pre-immunized rats ([2]; day 13 post GPSC-CFA immunization): < 0.02

lys-gly-tyr-ile-ser-gly-tyr-phe-val-thr-asp-ala-glu-arg-gln (KGYISGYFVTDAERQ) [Peptide #6]
Protection against EAE after pre-immunization with the peptide [3]: did protect against or decrease the symptoms of EAE; also recorded: significantly decreases both the incidence and severity of EAE; also recorded: protects rats against EAE
T cell proliferative response elicited by the peptide ([4]; PBL from MS and OND patients, greater than two-fold above background considered significant): elicited specific T cell proliferative responses in some MS patients compared with OND patients
Correlation of responsiveness to the peptide with responsiveness to M. tuberculosis, OND patients ([4]; Pearson correlation, PBL): No significant correlations
p, correlation of responsiveness to the peptide with responsiveness to M. tuberculosis, DR2+ MS females ([4]; Pearson correlation, PBL): < 0.02
p, correlation of responsiveness to the peptide with responsiveness to M. tuberculosis, DR2- MS males ([4]; Pearson correlation, PBL): < 0.01
p, correlation of responsiveness to the peptide with responsiveness to M. tuberculosis, all MS patients ([4]; Pearson correlation, PBL): < 0.01
Difference in frequency of proliferative response, Group A greater than Group B: MS F vs MS M ([4]; chi-square p, PBL): greater response
Difference in frequency of proliferative response, Group A greater than Group B: MS F vs OND M ([4]; chi-square p, PBL): greater response
Difference in frequency of proliferative response, Group A greater than Group B: MS F, DR2- VS MS M, DR2- ([4]; chi-square p, PBL): responded more strongly
Difference in frequency of proliferative response, Group A greater than Group B: MS F, DR2- vs MS F, DR2+ ([4]; chi-square p, PBL): N.S.
Difference in frequency of proliferative response, Group A greater than Group B: MS M, DR2+ VS MS F, DR2+ ([4]; chi-square p, PBL): N.S.
Difference in frequency of proliferative response, Group A greater than Group B: MS F vs MS M [4, 6]: < 0.025
Difference in frequency of proliferative response, Group A greater than Group B: MS F vs OND M [4, 6]: < 0.0005
Difference in frequency of proliferative response, Group A greater than Group B: MS F, DR2- VS MS M, DR2- [4, 6]: < 0.05
